Eleven compounds from US4721715A, “Derivatives of 4-(arylpiperazinyl-ethylaminoethoxy) phenol useful for effecting hypolipidemic therapy or cardiovascular therapy” (Societe Cortial, S.A., priority 1984, dated 1988) can be followed below.

Structures are written as SMILES. Counter-ions that a name gives are not always drawn. Where only a bound is given, the exact number is not on record here.

Series [1] concerns mice. The series is described as follows: Toxicity, oral administration to mice. In kind it is in vivo. The note with it: oral dose of 300 mg/kg.
The test system of series [2] is phenylephrine-induced hypertension. The experiment in a line: Alpha-blocking activity in vivo: antagonism of phenylephrine-induced hypertension in rats with spinal cord removal and bivagotomy. The note with it: intravenous; for inhibition in vivo at 3 µmol/kg / ED50: Rattus norvegicus; for inhibition in vivo at 3 µmol/kg: read-out: maximum activity (antagonism of phenylephrine-induced hypertension). As to the method: (§1) Alpha-blocking activity was determined in vivo in mice with the test involving inhibition of mydriasis induced by norepinephrine. […] Thirty minutes later, 0.75 mg/kg norepinephrine was administered intravenously. […] In vivo alpha-blocking activity was also evaluated by determination of antagonism of phenylephrine-induced hypertension. The test products were administered by the intravenous route to rats that had undergone spinal cord removal and bivagotomy according to the technique by J. S. Gillespie and T. S. Muir (Br. J. Pharmac. Chemother. 30:78-87, 1967). The dosage, maximum activity, and the interval after which residual activity was equal to 50% of the maximum activity are presented below: […]

For series [3], the system named is mice. The series is described as follows: Toxicity, intraperitoneal administration to mice. Conditions: mice, intraperitoneal dose of 200 mg per kg.
Another series deals with glucose tolerance curve. The series is described as follows: Hypoglycemic activity: glucose tolerance curve after an excess of starch. Type of series: in vivo. The note with it: one hour after oral 100 mg/kg, excess of starch (2.5 g per kg). Here is the method:
(§2) Hypoglycemic Activity: One hour after oral administration of a dose of 100 mg/kg, COR 2839 produced a 21% reduction in the glucose tolerance curve after an excess of starch (2.5 g per kg). One hour after oral administration of a dose of 100 mg per kg, COR 2839 brought about a decrease of 24% in the blook sugar of fasting mice subjected to an excess of glucose (1 g per kg) at the time that the test product was tiven.

The test system of another series is fasting mice. The series is described as follows: Hypoglycemic activity: blood sugar of fasting mice subjected to an excess of glucose. Conditions: one hour after oral 100 mg per kg, excess of glucose (1 g per kg). Type of series: in vivo. Here is the method:
as §2

Series [4] has as its system norepinephrine-induced mydriasis. The experiment in a line: Alpha-blocking activity in vivo: inhibition of norepinephrine-induced mydriasis in mice. The note with it: 25 mg/kg, 0.75 mg/kg norepinephrine IV. Here is the method:
as §1

A short description of series [5]: Toxicity, oral administration to mice. Type of series: in vivo. The note with it: mouse, in vivo, oral route, confidence interval in parentheses.
Another series has as its system IgE. The experiment in a line: Combined anaphylactic reaction (IgE) and cutaneous histamine reaction in the same rat: IgE reaction. Type of series: in vivo, Sprague-Dawley rat. Here is the method: (§3) Antihistamine-antiallergy activity was also determined by combining an anaphylactic reaction (IgE) and a cutaneous histamine reaction in the same animal (Sprague-Dawley rat). Activity was evaluated by the quantity of Evans blue liberated at each reaction site as compared with control animals receiving the administration vehicle. COR 2831 produced the following ED50 values in this test: […]

Series [6] relates to isolated guinea pig ileum (serotonin). The experiment in a line: Antiserotonin activity in vitro: serotonin-induced contractions of isolated guinea pig ileum. Conditions: 2.10^-6 g/ml; serotonin 10^-6 g/ml. The source says: Antiserotonin Activity: In vitro, contractions induced in isolated guinea pig ileum by 10^-6 g/ml serotonin were inhibited by COR 2838 in a concentration of 4.10^-7 g/ml and COR 2831 and COR 2833 in a concentration of 2.10^-6 g/ml.

Series [7] has as its system isolated guinea pig ileum (histamine). The series is described as follows: Antihistamine activity in vitro: histamine-induced contractions of isolated guinea pig ileum. The note with it: histamine 5.10^-7 g/ml.
Series [8] deals with passive cutaneous anaphylaxis. The experiment in a line: Passive cutaneous anaphylaxis test in rats. In kind it is in vivo. Here is the method: Antiallergy-Antihistamine Activity: In the passive cutaneous anaphylaxis test, COR 2833 and COR 2838 given to rats in an intravenous dose of 10 mg/kg produced 53 and 60% activity, respectively. Under the same conditions, COR 2831 produced 67% activity in an oral dose of 5 mg/kg.

For a further series, the system named is histamine. The experiment in a line: Combined anaphylactic reaction (IgE) and cutaneous histamine reaction in the same rat: histamine reaction. In kind it is in vivo, Sprague-Dawley rat. As to the method: as §3
A short description of series [9]: Toxicity, intravenous administration to mice. In kind it is in vivo. The note with it: mouse, in vivo, intravenous route.
Series [10] has as its system spontaneously hypertensive rats. The experiment in a line: Antihypertensive activity, spontaneously hypertensive rats, oral, two days, sphygmomanometer. Type of series: in vivo. Conditions: 100 mg/kg/day for two days, one hour after gavage. As to the method:
Antihypertensive Activity: The test products were administered orally to spontaneously hypertensive rats. Arterial pressure was measured indirectly with a sphygmomanometer.

In series [11] the test system is Alpha-1. The experiment in a line: Type of antagonism vis-a-vis norepinephrine on isolated rabbit aorta strips (cumulative curve method, Van Rossum, in presence of cocaine). The note with it: 30 minutes interval. Here is the method: Alpha-1 Blocking Activity: Alpha-1 blocking activity is evaluated in vitro by determination of the antagonism of contractions induced in isolated rabbit aorta strips by norepinephrine used in a concentration of 2.10^-6 mol/1 according to a technique derived from that described by Furchgott and Bhadrakom (J. Pharmacol. 108:129-43, 1953). The IC50 (concentration inhibiting 50% of the contractions) as well as the interval between introduction of the test product and of the […] into the bath, which corresponds to the maximum activity, are presented below for the derivatives according to the present invention: COR 2831, 90 min, 1.10·10^-7 (9.26·10^-8 -1.31·10^-7)mol/1; COR 2837, 30 min, 1.64·10^-6 (1.44·10^-6 -1.85·10^-6) mol/1; COR 2841, 60 min, 1.16·10^-6(9.24·10^-7 -1.46·10^-6) mol/1; COR 2843, 60 min, 9.82·10^ -7 (7.67·10^-7 -1.26·10^-6) mol/1; COR 2838, 60 min, 2.53·10^-6(2.15·10^-6 -2.98·10^-6 mol/1. The type of antagonism that COR 2831 exerts vis-a-vis norepinephrine was determined on the same type of preparation for an interval of 30 minutes, using the cumulative curve method according to Van Rossum in the presence of cocaine.

Series [12] deals with Alpha-1. The experiment in a line: Alpha-1 blocking activity in vitro: antagonism of norepinephrine-induced contractions of isolated rabbit aorta strips. Conditions: norepinephrine 2.10^-6 mol/1.
In a further series the test system is platelet aggregation. The experiment in a line: Platelet anti-aggregation activity: sodium arachidonate-induced aggregation in rabbit plasma with a high platelet content. Type of series: cell-based. Conditions: Oryctolagus cuniculus, 50 mcg/ml sodium arachidonate; for inhibition at 5 µg/mL: 5 mcg/ml. From the text: In the presence of aspirin, this inhibition was 100% in a concentration of 2.5 mcg/ml COR 2860 and a concentration of 5 mcg/ml COR 2864. In the absence of aspirin, the inhibition was 100% with a concentration of 5 mcg/ml COR 2860 and 10 mcg/ml COR 2864.

Regarding `Cc1cc(OCCN2CCN(c3ccccc3)CC2)c(C(C)C)cc1O` [COR 2837, 5-Isopropyl-2-methyl-4-phenylpiperazinylethoxyphenol hydrochloride], the deaths result with mice [1] and in the series with mice [3] was “no deaths” each time. Further, the inhibition in vivo at 3 µmol/kg in [2] (3.10^-6 M/kg) was 91.1%.
`Cc1cc(OCCN2CCN(c3cccc(C(F)(F)F)c3)CC2)c(C(C)C)cc1O` [COR 2839, 5-Isopropyl-2-methyl-4-(3-trifluoromethylphenyl) piperazinyl-ethoxy)phenol hydrochloride]: the “reduction in the glucose tolerance curve” value in the series with glucose tolerance curve is 21%. The deaths result in the series on mice [3] is reported as “no deaths”. In the series on fasting mice, the “decrease in the blood sugar” value is 24%.
On to `Cc1cc(OCCN2CCN(c3cccc(C)c3C)CC2)c(C(C)C)cc1O` [COR 2861, 5-Isopropyl-2-methyl-4-((2,3-dimethylphenylpiperazinyl)ethoxyphenol hydrochloride], for which the deaths entry in the series with mice [1] and in the series on mice [3] was “no deaths” throughout. Also, the inhibition in vivo at 3 µmol/kg in series [2] (3.10^-6 M/kg) is 66.4%.
Consider `Cc1cc(OCCN2CCN(c3cccc(Cl)c3)CC2)c(C(C)C)cc1O` [COR 2842, 5-Isopropyl-2-methyl-4-((3-chlorophenyl)piperazinylethoxy)phenol hydrochloride], for which the deaths entry in the series with mice [1] and in the series on mice [3] was “no deaths” in each case. The inhibition in vivo at 3 µmol/kg in series [2] (3.10^-6 M/kg) was 35.1%.
`Cc1cc(OCCN2CCN(c3ccc(F)cc3)CC2)c(C(C)C)cc1O` [COR 2841, 5-Isopropyl-2-methyl-4-(p-fluorophenylpiperazinylethoxy)phenol hydrochloride]: the deaths result in the series on mice [1] is recorded as “no deaths”. Moreover, the inhibition in vivo at 3 µmol/kg in series [2] (3.10^-6 M/kg) was 39.8%.
In series [4], `CC(CCc1ccccc1)NCC(O)c1ccc(O)c(C(N)=O)c1` (stereo not shown) [labetalol, reference compound] gave an inhibition of mydriasis of 58%.
Consider `COc1ccccc1N1CCN(CCOc2cc(C)c(O)cc2C(C)C)CC1` [COR 2831, 5-Isopropyl-2-methyl-4-(2-methoxyphenylpiperazinyl)ethoxy)phenol hydrochloride], for which the LD50 (usually the dose expected to kill half of the subjects tested) worked out at 1130 mg/kg in series [5] and 86 mg/kg in [9]. Moreover, the deaths result in the series with mice [1] and with mice [3] was “no deaths” in each case. Besides, the ED50 (in general, the midpoint of the dose-response relation) amounted to 0.27 mg/kg in the series with IgE (IV route); 14.4 mg/kg in the series with IgE (Oral route); 0.0195 µmol/kg in [2] (2 min, after 2 min); 0.304 µmol/kg in [2] (0.5 h, after 30 min); 0.84 µmol/kg in series [2] (1 h, after 60 min); 0.37 mg/kg in the series on histamine (IV route). Also, the ED50 in the series with histamine (Oral route) was found to be 8 mg/kg. In [6], the “inhibition of serotonin-induced contractions” value is “inhibited”. In addition, in [7] (10^-5 g/ml), the “inhibition of histamine-induced contractions” value is reported as 80%. Also, in [2] (3.10^-6 M/kg), the inhibition in vivo at 3 µmol/kg was determined as 129%. In addition, in [2] (3.10^-6 M/kg), the “interval after which residual activity was equal to 50% of the maximum activity” value is > 2 h. The “activity in the passive cutaneous anaphylaxis test” value in [8] (oral, 5 mg/kg) was 67%. Besides, the figures for the maximum pressure reduction in series [10] (first day) and in series [10] (second day) were 26% and 21%, respectively. In addition, the pA2 (as a rule, a measure of antagonist potency on a negative log scale) in the series on Alpha-1 [11] (Arunlakshama and Schild method) stood at 8.59±0.08. Moreover, the type of antagonism result in the series with Alpha-1 [11] (vis-a-vis norepinephrine) was “competitive nature”. The “interval between introduction of the test product and of the […] into the bath, which corresponds to the maximum activity” value in the series with Alpha-1 [12] was 90 min.
For the compound `COc1ccc(N2CCN(CCOc3cc(C)c(O)cc3C(C)C)CC2)cc1` [COR 2860, 5-Isopropyl-2-methyl-4-((4-methoxyphenylpiperazinyl)ethoxy)phenol dihydrochloride], the deaths result in the series on mice [1] and with mice [3] was “no deaths” each time. In addition, in the series on platelet aggregation (2.5 mcg/ml, in the presence of aspirin (1 mcg/ml)), the inhibition (as a rule, the change of the read-out against control, counted positive when it falls) at 2.5 µg/mL amounted to 100%. The compound further returned an inhibition at 5 µg/mL in the series on platelet aggregation (in the absence of aspirin) of 100%. Further, in [2] (3.10^-6 M/kg), the inhibition in vivo at 3 µmol/kg was found to be 39.7%.
For the compound `COc1ccccc1N1CCN(CCN(C)CCOc2cc(C)c(O)cc2C(C)C)CC1` [COR 2833, 5-Isopropyl-2-methyl-4-((N-methyl N-2-((2-methoxyphenyl)piperazinylethyl)amino)ethoxyphenoldihydrochloride], the “inhibition of serotonin-induced contractions” value in series [6] is “inhibited”. For the same compound, the “inhibition of histamine-induced contractions” value in [7] (concentration of 2.10^-6) worked out at 80%. Moreover, in series [8] (intravenous, 10 mg/kg), the “activity in the passive cutaneous anaphylaxis test” value was found to be 53%.
Take `Cc1cc(OCCN2CCN(c3ccccc3C)CC2)c(C(C)C)cc1O` [COR 2843, 5-Isopropyl-2-methyl-4-(2-methylphenyl) piperazinylethoxy phenol hydrochloride]: the deaths entry in the series with mice [1] and with mice [3] was “no deaths” in each case. Further, the inhibition in vivo at 3 µmol/kg in [2] (3.10^-6 M/kg) is 112%.
In the case of `Cc1cc(OCCN2CCN(c3ccccc3Cl)CC2)c(C(C)C)cc1O` [COR 2864, 5-Isopropyl-2-methyl-4-((2-chlorophenyl)piperazinylethoxy)phenol hydrochloride], the deaths entry in the series on mice [1] and in the series on mice [3] was “no deaths” in each case. Also, the inhibition at 5 µg/mL in the series with platelet aggregation (in the presence of aspirin (1 mcg/ml)) was determined as 100%. The inhibition at 10 µg/mL in the series with platelet aggregation (10 mcg/ml, in the absence of aspirin) stood at 100%. Moreover, the inhibition in vivo at 3 µmol/kg in [2] (3.10^-6 M/kg) amounted to 98.6%.
